In the assay the target is T1, human sodium-glucose cotransporter 2 (SGLT2) (Homo sapiens, UniProt P31639).
T1 construct: expressed in transfected cells; host or cells: NIH3T3 (mouse fibroblast) cells expressing hSGLT2
T1 sequence (P31639 1-672): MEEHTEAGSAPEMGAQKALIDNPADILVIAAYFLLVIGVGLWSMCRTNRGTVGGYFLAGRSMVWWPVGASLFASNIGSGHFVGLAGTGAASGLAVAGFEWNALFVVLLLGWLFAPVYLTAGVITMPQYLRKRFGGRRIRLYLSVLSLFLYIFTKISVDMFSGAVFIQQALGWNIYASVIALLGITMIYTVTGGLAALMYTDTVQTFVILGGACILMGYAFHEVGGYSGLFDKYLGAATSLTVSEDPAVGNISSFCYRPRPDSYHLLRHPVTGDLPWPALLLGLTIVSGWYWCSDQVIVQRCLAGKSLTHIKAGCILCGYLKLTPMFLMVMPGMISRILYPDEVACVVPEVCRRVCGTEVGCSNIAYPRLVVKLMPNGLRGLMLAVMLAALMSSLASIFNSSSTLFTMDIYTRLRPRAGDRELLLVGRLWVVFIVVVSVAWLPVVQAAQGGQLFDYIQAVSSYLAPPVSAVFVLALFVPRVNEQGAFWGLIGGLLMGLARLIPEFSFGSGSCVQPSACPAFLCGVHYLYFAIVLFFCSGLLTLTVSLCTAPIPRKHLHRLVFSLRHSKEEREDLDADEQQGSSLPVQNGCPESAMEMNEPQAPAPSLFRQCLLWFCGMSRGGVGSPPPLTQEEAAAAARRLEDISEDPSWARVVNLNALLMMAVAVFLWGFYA
The experiment in a line: In vitro SGLT2 inhibition, methyl-α-D-[U-14C]glucopyranoside uptake in NIH3T3-hSGLT2 cells. Format: cell-based. Conditions: for inhibition at 0.01 µM: SGLT2, 10 nM, read-out: % Inhibition rate ± SD 10 nM; for inhibition at 0.1 µM: SGLT2, 100 nM, read-out: % Inhibition rate ± SD 100 nM. The protocol: Inhibition of the compounds of formula I against human sodium-glucose cotransporter 2 (SGLT2) was determined experimentally and the experimental procedures were carried out as reference^1.
Methyl-α-D-[U-^14C] glucopyranoside (Perkin Elmer) Dimethylsulfoxide (Genebase, Prod No: 0231)
(1) Primary screening of hSGLT2 are conducted with two concentrations, 100 nM and 10 nM;
SGLT2 transports D-glucose at 1:1 sodium-glucose ratio, glucose is replaced by the non-metabolic and isotope labeled methyl-aD-[U-^14C] glucopyranoside and methyl-aD-glucopyranoside, and the amount of isotope transferred into the cells was determined.
1) 0.2% gelatin in a 96-well plate was put in a 37° C. incubator for further use;
2) NIH3T3-hSGLT2 cells were injected into 96-well plates, 40000/well, and 100 μL culture medium per well:
3) the fluid was changed in the next day, and sodium butyrate was added into medium at a final concentration of 2 mM;
4) wash the cells with 100 μL of KRH—Na^+ for 3 times and incubate cells with 50 μL for 30 minutes. Cells were changed to 50 μL of compound in KRH—Na^+, uptake buffer (KRH—Na^+ and methyl-α-D-[U-^14C]glucopyranoside and ⅙ mM methyl-α-D-glucopyranoside at 10 μL per well) was added; KRH-acetylcholine solution was used as background control instead of KRH-Na^+
5) washed with 100 μL PBS for 3 times, dried, 50 μL lysate and 150 μL scintillation fluid were added, the membrane was covered and flattened, shaken on a shaker to mix thoroughly, centrifuged at 1500 rpm at 4° C. for 3 min, taken out and read;
6) the results were analyses.
The inhibition rate (% Inhibiton) of each sample at each concentration was calculated by dividing the value of the compound well value minus the background value by the value of the DMSO control well value minus the background value.
IC50 is calculated as follows: […]
The y value is the activity or inhibition percent, the x value is the concentration of the corresponding compound, top (the maximum y value of the curve), bottom (the minimum y value of the curve).

As to `C[C@H]1O[C@]2(OCc3cc(F)c(Cc4cc5ccccc5o4)cc32)[C@H](O)[C@@H](O)[C@@H]1O` [Example A48, (1S,3′R,4′S,5′S,6′R)-6′-methyl-6-(benzo[b]furan-2-methyl)-5-fluoro-3′,4′,5′,6′-tetrahydro-3H-spiro[isobenzofuran-1,2′-pyran]-3′,4′,5′-triol], the inhibition at 0.01 µM worked out at 13.1 ± 8.4% and the inhibition at 0.1 µM is 33.2 ± 10.1%.
As for `C#Cc1cc2c(cc1Cc1ccc(CC)s1)[C@]1(OC2)O[C@H](C)[C@@H](O)[C@H](O)[C@H]1O` [Example A85, (1S,3′R,4′S,5′S,6′R)-5-ethynyl-6′-methyl-6-((5-ethylthienyl)-2-methyl)-3′,4′,5′,6′-tetrahydro-3H-spiro[isobenzofuran-1,2′-pyran]-3′,4′,5′-triol], the inhibition at 0.01 µM turned out to be 33.9 ± 14.1% and the inhibition at 0.1 µM is 50.4 ± 16.9%.
In the case of `C[C@H]1O[C@]2(OCc3cc(Cl)c(Cc4ccc5occc5c4)cc32)[C@H](O)[C@@H](O)[C@@H]1O` [Example A106, (1S,3′R,4′S,5′S,6′R)-6-(benzofuran-5-ylmethyl)-5-chloro-6′-methyl-3′,4′,5′,6′-tetrahydro-3H-spiro[isobenzofuran-1,2′-pyran]-3′,4′,5′-triol], the inhibition at 0.01 µM was found to be 4.8 ± 3.9% and the inhibition at 0.1 µM was 50.8 ± 7.5%.
With `C[C@H]1O[C@]2(OCc3cc(Cl)c(Cc4ccc(C5(C#N)CC5)cc4)cc32)[C@H](O)[C@@H](O)[C@@H]1O` [Example A108, 1-(4-(((1S,3′R,4′S,5′S,6′R)-5-chloro-3′,4′,5′-trihydroxy-6′-methyl-3′,4′,5′,6′-tetrahydro-3H-spiro[isobenzofuran-1,2′-pyran]-6-yl)methyl)phenyl)cyclopropane-1-formonitrile], the inhibition at 0.01 µM turned out to be 100.4 ± 0.9% and the inhibition at 0.1 µM was found to be 96.2 ± 3.4%.
On the same counts, the results for `C[C@H]1O[C@]2(OCc3cc(Cl)c(Cc4ccc(C5(C#N)CC5)s4)cc32)[C@H](O)[C@@H](O)[C@@H]1O` [Example A109, 1-(5-(((1S,3′R,4′S,5′S,6′R)-5-chloro-3′,4′,5′-trihydroxy-6′-methyl-3′,4′,5′,6′-tetrahydro-3H-spiro[isobenzofuran-1,2′-pyran]-6-yl)methyl)thiophene-2-yl)cyclopropane-1-formonitrile] are 86.8 ± 1.6% and 62.6 ± 7.2%.
On the same counts, the results for `C[C@H]1O[C@]2(OCc3cc(Cl)c(Cc4ccc(C(F)(F)F)cc4)cc32)[C@H](O)[C@@H](O)[C@@H]1O` [Example A110] are 93 ± 5.9% and 71.5 ± 7.2%.
On the same counts, the results for `C[C@H]1O[C@]2(OCc3cc(Cl)c(C(=O)c4ccc(C(F)(F)F)cc4)cc32)[C@H](O)[C@@H](O)[C@@H]1O` [Example A111, ((1S,3′R,4′S,5′S,6′R)-5-chloro-3′,4′,5′-trihydroxy-6′-methyl-3′,4′,5′,6′-tetrahydro-3H-spiro[isobenzofuran-1,2′-pyran]-6-yl)(4-(trifluoromethyl)phenyl)ketone] are 46.2 ± 11.1% and 39.9 ± 10.8%.
`C[C@H]1O[C@]2(OCc3cc(Cl)c(C(=O)c4ccc(C(F)(F)F)c(F)c4)cc32)[C@H](O)[C@@H](O)[C@@H]1O` [Example A112, ((1S,3′R,4′S,5′S,6′R)-5-chloro-3′,4′,5′-trihydroxy-6′-methyl-3′,4′,5′,6′-tetrahydro-3H-spiro[isobenzofuran-1,2′-pyran]-6-yl)(3-fluoro-4-(trifluoromethyl)phenyl)ketone]: the inhibition at 0.01 µM is 34.9 ± 23% and the inhibition at 0.1 µM amounted to 44.3 ± 15.6%.
As to `CCc1ccc(C(=O)c2cc3c(cc2Cl)CO[C@]32O[C@H](C)[C@@H](O)[C@H](O)[C@H]2O)s1` [Example A113, ((1S,3′R,4′S,5′S,6′R)-5-chloro-3′,4′,5′-trihydroxy-6′-methyl-3′,4′,5′,6′-tetrahydro-3H-spiro[isobenzofuran-1,2′-pyran]-6-yl)(5-ethylthiophene-2-yl)ketone], the inhibition at 0.01 µM was 20.9 ± 16.3% and the inhibition at 0.1 µM stood at 22.5 ± 10.7%.
Take `CCOCCc1ccc(Cc2cc3c(cc2Cl)CO[C@]32O[C@H](C)[C@@H](O)[C@H](O)[C@H]2O)s1` [Example A115, (1S,3′R,4′S,5′S,6′R)-5-chloro-6-((5-(2-ethoxyethyl)thiophene-2-yl)methyl)-6′-methyl-3′,4′,5′,6′-tetrahydro-3H-spiro[isobenzofuran-1,2′-pyran]-3′,4′,5′-triol]: the inhibition at 0.01 µM is 78.1 ± 5.1% and the inhibition at 0.1 µM came to 53.8 ± 5.5%.
For `CCCOCCc1ccc(Cc2cc3c(cc2Cl)CO[C@]32O[C@H](C)[C@@H](O)[C@H](O)[C@H]2O)s1` [Example A116, (1S,3′R,4′S,5′S,6′R)-5-chloro-6-((5-(2-propoxyethyl)thiophene-2-yl)methyl)-6′-methyl-3′,4′,5′,6′-tetrahydro-3H-spiro[isobenzofuran-1,2′-pyran]-3′,4′,5′-triol], in that order: 89.4 ± 1.5% and 62.3 ± 6%.
For `CC(=O)c1ccc(Cc2cc3c(cc2Cl)CO[C@]32O[C@H](C)[C@@H](O)[C@H](O)[C@H]2O)s1` [Example A117, 1-(5-(((1S,3′R,4′S,5′S,6′R)-5-chloro-3′,4′,5′-trihydroxy-6′-methyl-3′,4′,5′,6′-tetrahydro-3H-spiro[isobenzofuran-1,2′-pyran]-6-yl)methyl)thiophene-2-yl)ethanone], in that order: 30.1 ± 1% and 22.6 ± 8.3%.
On the same counts, the results for `CCc1ccc(C(O)c2cc3c(cc2Cl)CO[C@]32O[C@H](C)[C@@H](O)[C@H](O)[C@H]2O)s1` (some centres unmarked) [Example A120] are 4 ± 9.2% and 22.8 ± 8.1%.

In general, inhibition refers to the change of the read-out against control, counted positive when it falls.

The values above are taken from patent US10550143B2, “C,O-spiro aryl glycoside compounds, preparation therefor and use thereof” (SHANGHAI INSTITUTE OF MATERIA MEDICA, CHINESE ACADEMY OF …, priority 2015, dated 2020).
